Reference: the supplement of paper PMC10307832

Key:
Test in all cases: relative viability (nuclei count vs DMSO), 5 days (fraction); higher = more cells survive
[1] = tested on: EKVX
Method in brief: (§1)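 Lung cancer cell lines were seeded in 1536-well plates and dosed by pin tool the next day, with either a single drug or a fixed anchor-drug dose combined with five library-drug doses (not always all listed) spaced in √10 steps. Five days later, one step fixed the cells and stained their nuclei (final 0.05% Triton X-100, 1% formaldehyde, 1 ug/ml Hoechst), and nuclei were counted on 4× images. Relative viability is the nuclei count in treated wells divided by the count in vehicle wells, and each value is the median of duplicate plates.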

[2] = tested on: LCLC-97TM1
Method in brief: as §1

[3] = tested on: NCI-H1437
Method in brief: as §1

[4] = tested on: NCI-H1650
Method in brief: as §1

[5] = tested on: NCI-H1666
Method in brief: as §1

[6] = tested on: NCI-H1792
Method in brief: as §1

[7] = tested on: NCI-H1915
Method in brief: as §1

[8] = tested on: NCI-H1975
Method in brief: as §1

[9] = tested on: NCI-H2342
Method in brief: as §1

[10] = tested on: NCI-H23
Method in brief: as §1

[11] = tested on: NCI-H322M
Method in brief: as §1

[12] = tested on: NCI-H358
Method in brief: as §1

[13] = tested on: NCI-H441
Method in brief: as §1

[14] = tested on: NCI-H460
Method in brief: as §1

[15] = tested on: NCI-H520
Method in brief: as §1

[16] = tested on: NCI-H522
Method in brief: as §1

[17] = tested on: NCI-H596
Method in brief: as §1

[18] = tested on: NCI-H647
Method in brief: as §1

[19] = tested on: NCI-H661
Method in brief: as §1

[20] = tested on: NCI-H727
Method in brief: as §1

[21] = tested on: NCI-H838
Method in brief: as §1

[22] = tested on: PC-3 [JPC-3]
Method in brief: as §1

[23] = tested on: SK-LU-1
Method in brief: as §1

CCNC(=O)c1noc(-c2cc(C(C)C)c(O)cc2O)c1-c1ccc(CN2CCOCC2)cc1 [Luminespib] + CC(=O)Nc1cccc(-n2c(=O)n(C3CC3)c(=O)c3c(Nc4ccc(I)cc4F)n(C)c(=O)c(C)c32)c1 [Trametinib] (partner 0.02 µM)
relative viability ([1]; first compound 0.002 µM): 0.391 | relative viability ([1]; first compound 0.006325 µM): 0.326 | relative viability ([1]; first compound 0.02 µM): 0.219 | relative viability ([1]; first compound 0.06325 µM): 0.165 | relative viability ([1]; first compound 0.2 µM): 0.122 | relative viability ([2]; first compound 0.002 µM): 0.233 | relative viability ([2]; first compound 0.006325 µM): 0.186 | relative viability ([2]; first compound 0.06325 µM): 0.221 | relative viability ([2]; first compound 0.2 µM): 0.166 | relative viability ([3]; first compound 0.002 µM): 0.595 | relative viability ([3]; first compound 0.006325 µM): 0.52 | relative viability ([3]; first compound 0.02 µM): 0.492 | relative viability ([3]; first compound 0.06325 µM): 0.325 | relative viability ([3]; first compound 0.2 µM): 0.217 | relative viability ([4]; first compound 0.002 µM): 0.571 | relative viability ([4]; first compound 0.006325 µM): 0.565 | relative viability ([4]; first compound 0.02 µM): 0.178 | relative viability ([4]; first compound 0.06325 µM): 0.1 | relative viability ([4]; first compound 0.2 µM): 0.0947 | relative viability ([5]; first compound 0.002 µM): 0.845 | relative viability ([5]; first compound 0.006325 µM): 0.869 | relative viability ([5]; first compound 0.02 µM): 0.942 | relative viability ([5]; first compound 0.06325 µM): 0.818 | relative viability ([5]; first compound 0.2 µM): 0.982 | relative viability ([6]; first compound 0.002 µM): 0.407 | relative viability ([6]; first compound 0.006325 µM): 0.391 | relative viability ([6]; first compound 0.02 µM): 0.317 | relative viability ([6]; first compound 0.06325 µM): 0.0621 | relative viability ([6]; first compound 0.2 µM): 0.0632 | relative viability ([7]; first compound 0.002 µM): 0.316 | relative viability ([7]; first compound 0.006325 µM): 0.287 | relative viability ([7]; first compound 0.02 µM): 0.244 | relative viability ([7]; first compound 0.06325 µM): 0.254 | relative viability ([7]; first compound 0.2 µM): 0.161 | relative viability ([8]; first compound 0.002 µM): 0.349 | relative viability ([8]; first compound 0.006325 µM): 0.334 | relative viability ([8]; first compound 0.02 µM): 0.168 | relative viability ([8]; first compound 0.06325 µM): 0.107 | relative viability ([8]; first compound 0.2 µM): 0.118 | relative viability ([9]; first compound 0.002 µM): 0.687 | relative viability ([9]; first compound 0.006325 µM): 0.881 | relative viability ([9]; first compound 0.02 µM): 0.551 | relative viability ([9]; first compound 0.06325 µM): 0.889 | relative viability ([9]; first compound 0.2 µM): 0.52 | relative viability ([10]; first compound 0.002 µM): 0.397 | relative viability ([10]; first compound 0.006325 µM): 0.424 | relative viability ([10]; first compound 0.02 µM): 0.333 | relative viability ([10]; first compound 0.06325 µM): 0.13 | relative viability ([10]; first compound 0.2 µM): 0.156 | relative viability ([11]; first compound 0.002 µM): 0.494 | relative viability ([11]; first compound 0.006325 µM): 0.535 | relative viability ([11]; first compound 0.02 µM): 0.453 | relative viability ([11]; first compound 0.06325 µM): 0.456 | relative viability ([11]; first compound 0.2 µM): 0.407 | relative viability ([12]; first compound 0.002 µM): 0.142 | relative viability ([12]; first compound 0.006325 µM): 0.133 | relative viability ([12]; first compound 0.02 µM): 0.0934 | relative viability ([12]; first compound 0.06325 µM): 0.0702 | relative viability ([12]; first compound 0.2 µM): 0.0715 | relative viability ([13]; first compound 0.002 µM): 0.555 | relative viability ([13]; first compound 0.006325 µM): 0.465 | relative viability ([13]; first compound 0.02 µM): 0.271 | relative viability ([13]; first compound 0.06325 µM): 0.0929 | relative viability ([13]; first compound 0.2 µM): 0.11 | relative viability ([14]; first compound 0.002 µM): 0.205 | relative viability ([14]; first compound 0.006325 µM): 0.124 | relative viability ([14]; first compound 0.02 µM): 0.0112 | relative viability ([14]; first compound 0.06325 µM): 0.0128 | relative viability ([14]; first compound 0.2 µM): 0.0152 | relative viability ([15]; first compound 0.002 µM): 0.795 | relative viability ([15]; first compound 0.006325 µM): 0.606 | relative viability ([15]; first compound 0.02 µM): 0.371 | relative viability ([15]; first compound 0.06325 µM): 0.114 | relative viability ([15]; first compound 0.2 µM): 0.138 | relative viability ([16]; first compound 0.002 µM): 0.721 | relative viability ([16]; first compound 0.006325 µM): 0.716 | relative viability ([16]; first compound 0.02 µM): 0.693 | relative viability ([16]; first compound 0.06325 µM): 0.635 | relative viability ([16]; first compound 0.2 µM): 0.501 | relative viability ([17]; first compound 0.002 µM): 0.873 | relative viability ([17]; first compound 0.006325 µM): 0.835 | relative viability ([17]; first compound 0.02 µM): 0.743 | relative viability ([17]; first compound 0.06325 µM): 0.806 | relative viability ([17]; first compound 0.2 µM): 0.646 | relative viability ([18]; first compound 0.002 µM): 0.507 | relative viability ([18]; first compound 0.006325 µM): 0.508 | relative viability ([18]; first compound 0.02 µM): 0.195 | relative viability ([18]; first compound 0.06325 µM): 0.0973 | relative viability ([18]; first compound 0.2 µM): 0.0815 | relative viability ([19]; first compound 0.002 µM): 0.56 | relative viability ([19]; first compound 0.006325 µM): 0.553 | relative viability ([19]; first compound 0.02 µM): 0.382 | relative viability ([19]; first compound 0.06325 µM): 0.265 | relative viability ([19]; first compound 0.2 µM): 0.256 | relative viability ([20]; first compound 0.002 µM): 0.422 | relative viability ([20]; first compound 0.006325 µM): 0.397 | relative viability ([20]; first compound 0.02 µM): 0.404 | relative viability ([20]; first compound 0.06325 µM): 0.247 | relative viability ([20]; first compound 0.2 µM): 0.253 | relative viability ([21]; first compound 0.002 µM): 0.582 | relative viability ([21]; first compound 0.006325 µM): 0.474 | relative viability ([21]; first compound 0.02 µM): 0.294 | relative viability ([21]; first compound 0.06325 µM): 0.093 | relative viability ([21]; first compound 0.2 µM): 0.134 | relative viability ([22]; first compound 0.002 µM): 0.75 | relative viability ([22]; first compound 0.006325 µM): 0.682 | relative viability ([22]; first compound 0.02 µM): 0.517 | relative viability ([22]; first compound 0.06325 µM): 0.505 | relative viability ([22]; first compound 0.2 µM): 0.457 | relative viability ([23]; first compound 0.002 µM): 0.478 | relative viability ([23]; first compound 0.006325 µM): 0.371 | relative viability ([23]; first compound 0.02 µM): 0.314 | relative viability ([23]; first compound 0.06325 µM): 0.178 | relative viability ([23]; first compound 0.2 µM): 0.185
